Calls of active or inactive are those of the source. No cut-off for these calls is given here.
Assays:
Oocyte [1] = experiment: (§1) Activity at rat […] GABAA alpha-1H101Cbeta-2-gamma-2 mutant receptor expressed in xenopus oocytes assessed as GABA-elicited response by two electrode voltage clamp method relative to control; type: cell-based
[2] = as §1; type: cell-based; details: Oocyte
Oocyte [3] = experiment: (§2) Activity at rat […] GABAA alpha-1G157Cbeta-2-gamma-2 mutant receptor expressed in xenopus oocytes assessed as GABA-elicited response by two electrode voltage clamp method relative to control; type: cell-based
[4] = as §2; type: cell-based; details: Oocyte
Oocyte [5] = experiment: Activity at rat GABAA alpha-1H101Cbeta-2-gamma-2 mutant receptor expressed in xenopus oocytes assessed as change in GABA-induced current amplitude at 10 uM after 1 min exposure to GABA by two electrode voltage clamp method; type: cell-based
Oocyte [6] = experiment: (§3) Activity at rat […] GABAA alpha-1V202Cbeta-2-gamma-2 mutant receptor expressed in xenopus oocytes assessed as GABA-elicited response by two electrode voltage clamp method relative to control; type: cell-based
[7] = as §3; type: cell-based; details: Oocyte
Oocyte [8] = experiment: (§4) Activity at rat […] GABAA alpha-1V211Cbeta-2-gamma-2 mutant receptor expressed in xenopus oocytes assessed as GABA-elicited response by two electrode voltage clamp method relative to control; type: cell-based
[9] = as §4; type: cell-based; details: Oocyte
HEK293 [10] = experiment: Displacement of [3H]Ro15-1788 from rat GABAA alpha-1H101Cbeta-2-gamma-2 mutant receptor expressed in HEK293 cells assessed as residual binding at 10 nM after 1 hr by liquid scintillation counting in presence of flunitrazepam; type: cell-based
Oocyte [11] = experiment: Activity at rat GABAA alpha-1V202Cbeta-2-gamma-2 mutant receptor expressed in xenopus oocytes assessed as change in GABA-induced current amplitude at 1 uM after 1 min exposure to GABA by two electrode voltage clamp method; type: cell-based
Oocyte [12] = experiment: Activity at rat GABAA alpha-1G157Cbeta-2-gamma-2 mutant receptor expressed in xenopus oocytes assessed as change in GABA-induced current amplitude at 1 uM after 1 min exposure to GABA by two electrode voltage clamp method; type: cell-based
HEK293 [13] = experiment: Displacement of [3H]Ro15-1788 from rat GABAA alpha-1G157Cbeta-2-gamma-2 mutant receptor expressed in HEK293 cells assessed as residual binding at 100 nM after 1 hr by liquid scintillation counting; type: cell-based
Oocyte [14] = experiment: Activity at rat GABAA alpha-1H101Cbeta-2-gamma-2 mutant receptor expressed in xenopus oocytes assessed as change in GABA-induced current amplitude first phase stimulation at 3 uM by two electrode voltage clamp method; type: cell-based
Oocyte [15] = experiment: Activity at rat GABAA alpha-1H101Cbeta-2-gamma-2 mutant receptor expressed in xenopus oocytes assessed as change in GABA-induced current amplitude at 500 nM by two electrode voltage clamp method in presence of L-cysteine; type: cell-based
Oocyte [16] = experiment: Activity at rat GABAA alpha-1H101Cbeta-2-gamma-2 mutant receptor expressed in xenopus oocytes assessed as change in GABA-induced current amplitude at 10 nM to 1 uM after 1 min exposure to GABA by two electrode voltage clamp method; type: cell-based
HEK293 [17] = experiment: Displacement of [3H]Ro15-1788 from rat GABAA alpha-1H101Cbeta-2-gamma-2 mutant receptor expressed in HEK293 cells assessed as residual binding at 10 nM after 1 hr by liquid scintillation counting in presence of Ro15-1788; type: cell-based
HEK293 [18] = experiment: Displacement of [3H]Ro15-1788 from rat GABAA alpha-1H101Cbeta-2-gamma-2 mutant receptor expressed in HEK293 cells assessed as residual binding after pretreatment of L-cysteine at 30 nM after 1 hr by liquid scintillation counting; type: cell-based
[19] = biological target: T1, Gamma-aminobutyric acid receptor subunit alpha-1 (Homo sapiens) (UniProt P14867); details: Rattus norvegicus; Oocyte; 10 uM
T1 sequence (whole entry): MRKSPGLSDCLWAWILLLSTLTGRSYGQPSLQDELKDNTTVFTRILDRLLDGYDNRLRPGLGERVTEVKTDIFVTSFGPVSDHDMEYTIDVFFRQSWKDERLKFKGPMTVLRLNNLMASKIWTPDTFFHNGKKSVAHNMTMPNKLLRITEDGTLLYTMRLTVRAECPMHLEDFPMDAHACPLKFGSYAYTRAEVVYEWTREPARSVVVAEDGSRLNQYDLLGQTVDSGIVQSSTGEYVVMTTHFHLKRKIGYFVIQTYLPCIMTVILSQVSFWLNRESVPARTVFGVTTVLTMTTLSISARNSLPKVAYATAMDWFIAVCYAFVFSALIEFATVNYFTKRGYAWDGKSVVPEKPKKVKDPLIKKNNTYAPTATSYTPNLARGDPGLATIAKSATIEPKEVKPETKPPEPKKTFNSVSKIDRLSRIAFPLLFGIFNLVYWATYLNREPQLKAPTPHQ
Description: Activity at rat wild type GABAA alpha-1-beta-2-gamma-2 receptor expressed in xenopus oocytes assessed as change in GABA-induced current amplitude at 10 uM after 5 min by two electrode voltage clamp method

Oocyte [20] = experiment: Activity at rat GABAA alpha-1H101Cbeta-2-gamma-2 mutant receptor expressed in xenopus oocytes assessed as change in GABA-induced current amplitude second phase stimulation at 3 uM by two electrode voltage clamp method; type: cell-based
HEK293 [21] = experiment: Displacement of [3H]Ro15-1788 from rat GABAA alpha-1V211Cbeta-2-gamma-2 mutant receptor expressed in HEK293 cells assessed as residual binding at 100 nM after 1 hr by liquid scintillation counting; type: cell-based
[22] = Displacement of [3H]Ro15-1788 from rat GABAA alpha-1H101Cbeta-2-gamma-2 mutant receptor expressed in HEK293 cells after 1 hr assessed as residual binding by liquid scintillation counting; type: cell-based
Oocyte [23] = experiment: Activity at rat GABAA alpha-1V211Cbeta-2-gamma-2 mutant receptor expressed in xenopus oocytes assessed as change in GABA-induced current amplitude at 1 uM after 1 min exposure to GABA by two electrode voltage clamp method; type: cell-based
HEK293 [24] = experiment: Displacement of [3H]Ro15-1788 from rat GABAA alpha-1H101Cbeta-2-gamma-2 mutant receptor expressed in HEK293 cells assessed as residual binding without pretreatment of L-cysteine at 30 nM after 1 hr by liquid scintillation counting; type: cell-based
HEK293 [25] = experiment: Displacement of [3H]Ro15-1788 from rat GABAA alpha-1H101Cbeta-2-gamma-2 mutant receptor expressed in HEK293 cells assessed as residual binding at 100 nM after 1 hr by liquid scintillation counting; type: cell-based
[26] = biological target: T1, Gamma-aminobutyric acid receptor subunit alpha-1 (Homo sapiens); details: Rattus norvegicus; Oocyte; 1 uM
Description: Activity at rat wild type GABAA alpha-1-beta-2-gamma-2 receptor expressed in xenopus oocytes assessed as change in GABA-induced current amplitude at 1 uM after 5 min exposure to GABA by two electrode voltage clamp method

[27] = biological target: T1, Gamma-aminobutyric acid receptor subunit alpha-1 (Homo sapiens); details: Rattus norvegicus; Oocyte; 1 uM; remark: listed apart in the source
Description: Activity at rat wild type GABAA alpha-1-beta-2-gamma-2 receptor expressed in xenopus oocytes assessed as change in GABA-induced current amplitude at 1 uM after 1 min exposure to GABA by two electrode voltage clamp method

HEK293 [28] = experiment: Displacement of [3H]Ro15-1788 from rat GABAA alpha-1V202Cbeta-2-gamma-2 mutant receptor expressed in HEK293 cells assessed as residual binding at 100 nM after 1 hr by liquid scintillation counting; type: cell-based
HEK293 [29] = experiment: Displacement of [3H]Ro15-1788 from rat GABAA alpha-1H101Cbeta-2-gamma-2 mutant receptor expressed in HEK293 cells assessed as residual binding at 10 nM after 1 hr by liquid scintillation counting; type: cell-based
[30] = Displacement of [3H]Ro15-1788 from rat GABAA alpha-1-beta-2-gamma-2S receptor expressed in HEK293 cells by liquid scintillation counting; type: cell-based
Oocyte [31] = experiment: Activity at rat GABAA alpha-1H101Cbeta-2-gamma-2 mutant receptor expressed in xenopus oocytes assessed as change in GABA-induced current amplitude at 1 uM after 1 min exposure to GABA by two electrode voltage clamp method; type: cell-based

Cc1ccc(-c2nc3ccc(C)cn3c2CC(=O)N(C)C)cc1 [ZOLPIDEM] gave a max activation (Oocyte [1]) of 162%, an EC50 [2] of 1180 nM and a max activation (Oocyte [3]) of 427%. It also gave an EC50 [4] of 2630 nM, an inhibition (Oocyte [5]) of 96% and a max activation (Oocyte [6]) of 369%. For the same compound, the EC50 [7] was 2750 nM, the max activation (Oocyte [8]) was 127% and the EC50 [9] was 341 nM.
For CCOC(=O)c1ncn2c1CN(C)C(=O)c1cc(N=[N+]=[N-])ccc1-2 [Ro-154513], the max activation (Oocyte [1]) was 40%, the EC50 [2] was 17 nM and the max activation (Oocyte [3]) was 36%. The EC50 [4] was 32 nM, the max activation (Oocyte [6]) was 9% and the max activation (Oocyte [8]) was -23%. It also gave an EC50 [9] of 44 nM.
For CCOC(=O)c1ncn2c1CN(C)C(=O)c1cc(N=C=S)ccc1-2, the Activity (HEK293 [10]) was 64%, the max activation (Oocyte [1]) was 90% and the EC50 [2] was 17 nM. It also gave an inhibition (Oocyte [11]) of 71%, an inhibition (Oocyte [12]) of 88% and an Activity (HEK293 [13]) of 50%. For the same compound, the inhibition (Oocyte [14]) was 53%, the Activity (Oocyte [15]) was “Active” and the Activity (Oocyte [16]) was 362 nM. For the same compound, the Activity (HEK293 [17]) was 73%, the Activity (HEK293 [18]) was 82% and the inhibition [19] was 8%. It also gave an inhibition (Oocyte [20]) of 47%, a max activation (Oocyte [3]) of 30% and an EC50 [4] of 34 nM. For the same compound, the Activity (HEK293 [21]) was 50%, the Kd [22] was 0.9 nM and the inhibition (Oocyte [23]) was 5%. The Activity (HEK293 [24]) was 18%, the Activity (HEK293 [25]) was 85% and the inhibition [26] was 4%. For the same compound, the inhibition [27] was 3%, the max activation (Oocyte [6]) was 16% and the EC50 [7] was 668 nM. For the same compound, the Activity (HEK293 [28]) was 50%, the Activity (HEK293 [29]) was 29% and the max activation (Oocyte [8]) was over 140%. The EC50 [9] was over 2000 nM and the Ki [30] was 10 nM.
In the case of CCOC(=O)c1ncn2c1CN(C)C(=O)c1cc(F)ccc1-2 [FLUMAZENIL], the max activation (Oocyte [1]) is reported as 22%, the EC50 [2] is reported as 30 nM and the max activation (Oocyte [3]) is reported as -2%. For the same compound, the inhibition (Oocyte [31]) was 22%, the max activation (Oocyte [6]) was 1% and the max activation (Oocyte [8]) was 5%.
